Test results: patent publication US20160130554A1, “Reprogramming Mesenchymal Stromal Cells Into Hematopoietic Cells” (Wake Forest University Health Sciences, priority 2014, published 2016)

What was measured:
[1] = tested on: SIPs; test: In vitro reprogramming of SIPs, flow cytometry for hematopoietic surface markers; assay type: cell-based, human; settings: the two small molecules alone, without RUNX1C
Description: Heparinized human BM was obtained from healthy donors after informed consent, according to guidelines from the Office of Human Research Protection at the University of Nevada at Reno, Wake Forest Health Sciences, or from commercially available sources (AllCells, LLC, Alameda Calif.). Low density BM mononuclear cells (BMNC) were separated by Ficoll density gradient (1.077 g/ml Sigma, St. Louis, Mo.) and washed twice in Iscove's modified Dulbecco's medium (Invitrogen, Carlsbad, Calif.). Stro-1+ MSC were then isolated using anti-Stro-1 antibody (R&D Systems, Minneapolis, Minn.) and magnetic bead cell sorting (Miltenyi Biotec, Inc., Auburn, Calif.) according to manufacturer's guidelines. Stro-1+ cells were then cultured at low density in 0.02% gelatin (Sigma, St Louis, Mo.) coated flasks using Mesenchymal Stem Cell Growth Medium (MSCGM™, Lonza, Walkersville, Md.) in a humidified 37° C. incubator at 5% CO2.
BM-MSC were transduced on 6-well plates with Oct4- or RUNX1C-encoding lentiviral vector, alone or in combination (or an eGFP-encoding lentiviral vector as a control), at a multiplicity of infection (MOI) of 50 for each vector. Twenty four hours after transduction, the vector-containing media was removed and replaced with fresh MSCGM™ (Lonza). […]

[2] = tested on: SIPs; test: Culture conditions for reprogramming of SIPs (data not shown); assay type: cell-based, human; settings: the two factors alone, preliminary studies
Description: Cultures may be performed in defined serum-free media. This will to facilitate clinical grade production of hematopoietic cells. SIPS ([…]) may be plated in 100 mm gelatin-coated culture plates using serum-free TheraPEAK® MSCGM-CD Mesenchymal Stem Cell Medium (Lonza). Sixteen hours later they may be transduced overnight with the lentivector encoding RUNX1c at an MOI of ˜10. A control group may be transduced with an identical lentivector expressing EGFP to judge transduction efficiency (usually ˜80-90%) and to assess the precision of the cumate “switch”. The following day, the medium may be changed to DMEM/F12/+20% KOSR/1×NEAA/0.1 mM 2-ME/containing rhFGF2 (20 ng/ml) and rhIGFII (30 ng/ml). […] At the same time, media may be supplemented with cumate to turn on expression of RUNX1c (or EGFP) and with VPA (1 mM final concentration) and Bix-01294 (2 μM final concentration).
In order to facilitate differentiation of the HSC into all lineages or into hematopoietic cells having good engraftment potential, additional growth factors, such as TPO and BMP4, may be incorporated into the culture medium. […]

Compound | expression of CD41 or CD34 [1] | reprogramming of SIPs to the hematopoietic lineage [2]
CCCC(CCC)C(=O)O [VPA, valproic acid] | did not induce significant expression | –
COc1cc2nc(N3CCCN(C)CC3)nc(NC3CCN(Cc4ccccc4)CC3)c2cc1OC [Bix-01294] | did not induce significant expression | –
rhFGF2: recombinant human FGF2 medium supplement | – | some ability to support some degree of reprogramming
rhIGFII: recombinant human IGF-II medium supplement | – | some ability to support some degree of reprogramming
